Values after ≈ are worked out from the molar mass of the structure shown. Where two headings read alike, the source gives them in different places.
Experiments:
[1] = target: T1, E. coli gyrase GyrA^I74M (Escherichia coli, UniProt P0AES4+P0AES6, I74M); experiment: DNA gyrase cleavage assay (CC50, % cleaved DNA); assay type: biochemical; conditions: for % maximal cleavage: GyrAI74M, average of 3 independent assays; for EC50: GyrA^I74M, mean ± s.d. of triplicate; for % cleaved DNA Average: average of replicates
T1 construct: alternative cryo-EM approach involving full-length E. coli gyrase; 10-His (cleaved yes); Twin-Strep (cleaved yes); made in house
Protocol: For DNA gyrase supercoiling assays to characterize gyrase mutants, 15 µl reactions were set up containing 250 ng of relaxed DNA, E. coli gyrase supercoiling buffer (35 mM Tris–Cl pH 7.5, 24 mM KCl, 4 mM MgCl2, 2 mM DTT, 1.8 mM spermidine, 1 mM ATP, 6.0% (w/v) glycerol, and 0.1 mg ml^−1 BSA), gyrase subunits and inhibitors. Concentrations of enzyme and inhibitor are stated in the figure legends. Inhibitors were diluted in the following way to reduce the chance of precipitation: stock compound in 100% DMSO was diluted to 5 mM in 100% DMSO. This compound solution was diluted to 1 mM by stepwise addition of 1 µl of 50% DMSO with thorough mixing via pipetting after each addition. All subsequent dilutions up to 100 µM were performed in the same way using H2O. After this point, compounds were stable and could be diluted in the normal way. Reactions were incubated at 37 °C for 30 min before stopping with 15 µl chloroform:isoamyl alcohol (24:1 v/v) and 15 µl of STEB (40% (w/v) sucrose, 100 mM Tris–Cl pH 8, 10 mM EDTA, 0.5 mg ml^−1 bromophenol blue).
Cleavage assays were set up in the same way as supercoiling assays with some modifications. The concentration of enzyme was increased 4-fold relative to the supercoiling assay and reactions were incubated for 1 h before addition of 0.2% SDS and proteinase K (0.2 mg ml^−1) and further incubation at 37 °C for 30 min to trap cleavage complexes. Reactions were stopped in the same way as supercoiling assays.
(§1) Results were visualized by agarose gel electrophoresis: 1% agarose Tris-acetate-EDTA (TAE) gels were run without ethidium bromide (supercoiling) or with 10 µg ml^−1 ethidium bromide (cleavage) at 8 V cm^−1.
DNA cleavage gels were analysed using densitometry (ImageJ). Experiments were carried out in triplicate and expressed as mean ± s.d. Curves were fitted using OriginPro 2021 (Origin Lab) according to a modified Hill equation:1 y=cI+(cF−cI)[…]/(k^n+x^n) where y is the percentage of cleaved DNA, cI is the initial cleavage, cF is the final cleavage, k is the CC50 (the concentration of inhibitor that results in cleavage of 50% of DNA), n is a slope factor and x is the inhibitor concentration.

[2] = target: E. coli Topo IV (Escherichia coli, UniProt P0AFI2+P20083); experiment: Topo IV cleavage assay (cleavage complex stabilization); assay type: biochemical; conditions: for concentration at which a linear DNA band could be observed: Topo IV cleavage complex stabilization, tested 0.1, 1, 10, 100 µM; for stabilization of the cleavage complex with Topo IV: in words
Protocol: Topo IV cleavage assays were set up in the same way as relaxation assays with some modifications. The concentration of enzyme was increased by 20% and cleavage complexes were trapped by the addition of 0.2% SDS and proteinase K (0.2 mg ml^−1) and further incubation at 37 °C for 30 min. Reactions were stopped in the same way as supercoiling assays.
as §1
Supplementary Figure 11. Activity of albicidin and Albi-1/2/3 on E. coli […]
Cleavage activity of E. coli topo IV in the presence of albicidin, Albi-1, Albi-2 and Albi-3. First lane: negatively supercoiled pBR322; second lane: innate cleavage activity of E. coli topo IV (15 nM); third lane: effect of 20 µM CFX; subsequent lanes: effect of increasing compound concentration (0.1, 1, 10, 100 µM). […]
concentration. All experiments were carried out in triplicates and representative gels […]
(1 picture or pasted object on this page, not shown here)

[3] = test system: selected Gram-negative and Gram-positive microorganisms; experiment: MIC activity groups over all tested strains; assay type: cell-based; parameters: key: a: most potent; b: intermediate; least active; conditions: MIC panel
Protocol: (§2) MIC values were determined according to the ninth edition of the Approved Standard M07-A9. The test was carried out for six different bacterial strains (E. coli DSM 1116 (Gram-negative), E. coli BW25113 (Gram-negative), B. subtilis DSM 10 (Gram-positive), M. luteus DSM 1790 (Gram-positive), M. phlei DSM 750 (Gram-positive), S. typhimurium TA 100 (Gram-negative). First, 20 µl of glycerol stock of each strain was inoculated in 20 ml LB (Lennox) followed by incubation overnight at 37 °C, 200 r.p.m. The test inoculum was adjusted by the 0.5 McFarland Standard. Within 15 min of preparation, the adjusted inoculum suspension was diluted in MHBII so that each well contained approximately 5 × 10^5 c.f.u. ml^−1 in a final volume of 100 µl. Then, 95 µl of the inoculum was applied per well and 5 µl of the (diluted) albicidins was added. For dilutions, the dry powders were dissolved in dimethylsulfoxide (DMSO) with a concentration of 2.56 mg ml^−1, and the obtained stock solutions were further diluted in DMSO. Next, 5 µl of each antibiotic dilution was applied to the microdilution tray to reach final concentrations of 8 to 0.016 µg ml^−1. One row of each well plate served as a growth control without antibiotic and another row of the microdilution tray served as a sterility control (only MHBII media). The antimicrobial effect of the solvent was tested by adding 5 µl DMSO to several wells. Purity check and cell titre control were performed according to International Standard M07-A9 on Mueller–Hinton II Agar. Both microdilution trays and agar plates were incubated at 37 °C for 20 h.

[4] = test system: B. subtilis DSM10; experiment: MIC determination (microdilution, M07-A9); assay type: cell-based; conditions: Bacillus subtilis
Protocol: as §2

[5] = test system: E. coli BW25113; experiment: MIC determination (microdilution, M07-A9); assay type: cell-based
Protocol: as §2

[6] = test system: M. phlei DSM750; experiment: MIC determination (microdilution, M07-A9); assay type: cell-based; conditions: Mycolicibacterium phlei
Protocol: as §2

[7] = test system: M. luteus DSM1790; experiment: MIC determination (microdilution, M07-A9); assay type: cell-based
Protocol: as §2

[8] = test system: S. typhimurium TA100; experiment: MIC determination (microdilution, M07-A9); assay type: cell-based
Protocol: as §2

[9] = test system: E. coli DSM116; experiment: MIC determination (microdilution, M07-A9); assay type: cell-based; conditions: Escherichia coli, DSM116, E. coli DSM116, read-out: MIC
Protocol: as §2

[10] = first value in cell (biological replicate)
[11] = second value in cell (biological replicate)
[12] = E. coli BW25113, second value in cell (biological replicate)
[13] = Escherichia coli, BW25113, E. coli strain not named, read-out: MIC for E. coli
[14] = Escherichia coli, E. coli BW25113, first value in cell (biological replicate), read-out: MIC
[15] = Micrococcus luteus, first value in cell (biological replicate), read-out: MIC
[16] = Salmonella enterica, first value in cell (biological replicate), read-out: MIC

Structure (SMILES) | % maximal cleavage [1] [%] | EC50 [1] [nM] | concentration at which a linear DNA band could be observed [2] [µM] | stabilization of the cleavage complex with Topo IV [2] | activity group (superscript letter) [3] | MIC [4, 10] [µg/mL] | MIC [4, 11] [µg/mL] | MIC [5, 12] | MIC [5, 13] [µg/mL] | MIC [5, 14] [µg/mL] | MIC [6, 10] [µg/mL] | MIC [6, 11] [µg/mL] | MIC [7, 15] [µg/mL] | MIC [7, 11] | MIC [8, 16] [µg/mL] | MIC [8, 11] | MIC [9, 10] [µg/mL] | MIC [9, 11] [µg/mL] | also measured
CC(C)Oc1c(NC(=O)c2ccc(NC(=O)[C@H](Cc3c[nH]nn3)NC(=O)c3ccc(NC(=O)c4ccc(C#N)cc4)cn3)cn2)ccc(C(=O)Nc2ccc(C(=O)O)cc2)c1O [Albi-1] | 79±5 | 30 ± 2.7 | 1 | could stabilize the cleavage complex | Albi-1^a | 0.031 (≈ 0.037 µM) | 0.063 (≈ 0.0752 µM) | <0.016 <0.016 µg ml^−1 | ≤ 0.016 | < 0.016 | 0.25 (≈ 0.298 µM) | 0.5 (≈ 0.597 µM) | < 0.016 | <0.016 <0.016 µg ml^−1 | < 0.016 | <0.016 <0.016 µg ml^−1 | 0.031 (≈ 0.037 µM) | 0.031 (≈ 0.037 µM) | 
COc1c(NC(=O)c2ccc(NC(=O)c3ccc(NC(=O)[C@H](Cc4c[nH]nn4)NC(=O)c4ccc(NC(=O)c5ccc6cc(O)ccc6c5)cc4)cn3)c(OCCN)c2O)ccc(C(=O)O)c1O [Albi-2] |  |  |  |  | Albi-2^b | > 8 | > 8 | 4.0 µg/mL (≈ 4.32 µM) | 4 (≈ 4.32 µM) | 4 (≈ 4.32 µM) | > 8 | > 8 | > 8 | >8.0 >8.0 µg ml^−1 | 0.5 (≈ 0.541 µM) | 0.5 µg/mL (≈ 0.541 µM) | 2 (≈ 2.16 µM) | 4 (≈ 4.32 µM) | increase in MIC for E. coli compared with the parent compound ([5]; vs albicidin): 60 fold
COc1c(NC(=O)c2ccc(NC(=O)c3ccc(NC(=O)[C@H](Cc4c[nH]nn4)NC(=O)c4ccc(NC(=O)c5ccc6nc(C)ccc6c5)cc4)cn3)c(OC)c2O)ccc(C(=O)O)c1O [Albi-3] |  |  |  | could stabilize the cleavage complex |  | 0.063 (≈ 0.0704 µM) | 0.125 (≈ 0.14 µM) | <0.016 <0.016 µg ml^−1 | < 0.016 | < 0.016 | 0.5 (≈ 0.559 µM) | 1 (≈ 1.12 µM) | 0.063 (≈ 0.0704 µM) | 0.063 µg/mL (≈ 0.0704 µM) | < 0.016 | <0.016 <0.016 µg ml^−1 | < 0.016 | < 0.016 | 
COc1c(NC(=O)c2ccc(NC(=O)c3ccc(NC(=O)[C@H](CC#N)NC(=O)c4ccc(NC(=O)/C(C)=C/c5ccc(O)cc5)cc4)cc3)c(OC)c2O)ccc(C(=O)O)c1O [Albicidin] | 40±10 | 42 ± 7.7 | 10 | could stabilize the cleavage complex | Albicidin^a | < 0.25 | 0.25 (≈ 0.297 µM) | 0.063 µg/mL (≈ 0.0747 µM) |  | 0.063 (≈ 0.0747 µM) | 2 (≈ 2.37 µM) | 2 (≈ 2.37 µM) | 1 (≈ 1.19 µM) | 1.0 µg/mL (≈ 1.19 µM) | 0.063 (≈ 0.0747 µM) |  | 0.063 (≈ 0.0747 µM) | 0.063 (≈ 0.0747 µM) | reduction in the maximal amount of cleavage ([1]; GyrA^I74M vs WT gyrase): ~ 2 fold; % cleaved DNA Average ([1]; albicidin 0.0025 µM): 2.868%; % cleaved DNA Average ([1]; albicidin 0.005 µM): 1.835%; % cleaved DNA Average ([1]; albicidin 0.01 µM): 6.013%; % cleaved DNA Average ([1]; albicidin 0.025 µM): 10.9112%; % cleaved DNA Average ([1]; albicidin 0.05 µM): 19.5143%; % cleaved DNA Average ([1]; albicidin 0.1 µM): 32.1987%; % cleaved DNA Average ([1]; albicidin 0.25 µM): 36.304%; % cleaved DNA Average ([1]; albicidin 0.5 µM): 39.8221%; % cleaved DNA Average ([1]; albicidin 1 µM): 36.4081%
